Results taken from patent US6642392B1 (priority 1997, dated 2003).
Like-named read-outs stand apart in the source and are kept apart here.

What was measured:
Format in all cases: in vivo
[1] = tested on: Eiysiphe graminis f. sp. tritici; test: Test A: wheat powdery mildew, preventive spray on wheat seedlings; conditions: for Test A disease control rating: wheat powdery mildew
Summary of the method: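 Preventive test: seedlings inoculated with powdery mildew spores one day after run-off spraying of a suspension. Ratings after 7 days in a 20° C growth chamber express percent disease control versus controls.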

[2] = tested on: Puccinia recondita; test: Test B: wheat leaf rust, preventive spray on wheat seedlings; conditions: for Test B disease control rating: wheat leaf rust
Summary of the method: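 Preventive test: P. recondita spores were applied one day after a run-off spray of compound suspension on wheat seedlings. Plants had 24 h at 20 °C in saturated air plus 6 days in a 20 °C growth chamber. Scoring is % disease control (100 = full) relative to controls.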

[3] = tested on: Pyricularia oryzae; conditions: for Test C disease control rating: rice blast
[4] = tested on: Phytophthora infestans; conditions: for Test D disease control rating: tomato late blight
[5] = tested on: Botrytis cinerea; test: Test E: gray mold, preventive spray on cucumber seedlings; conditions: for Test E disease control rating: gray mold on cucumber
Summary of the method: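 Preventive spray on cucumber seedlings used a suspension (3% acetone, 250 ppm Trem 014), applied to run-off one day before inoculation with Botrytis cinerea spores. Plants were held 48 h at 20° C in saturated air, then 5 days at 20° C. Percent disease control was scored relative to untreated plants.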

[6] = 100 = 100% disease control, 0 = no control relative to controls, unmarked entries (standard test concentration)
[7] = 100 = 100% disease control, 0 = no control, unmarked entries (standard test concentration)
[8] = wheat seedlings sprayed to run-off, inoculated the following day, rating relative to controls, unmarked compounds (standard test rate)

Compound	Test A disease control rating [1, 6] [%]	Test B disease control rating [2, 7] [%]	Test C disease control rating [3, 7] [%]	Test D disease control rating [4, 7] [%]	Test E disease control rating [5, 7] [%]	other results
CCC1(C(=O)NC(C)COc2ccc(Br)cc2F)C(C)C1(Cl)Cl (mixture of isomers) [compound 122]	0	0	0	0	0	–
CCC1(C(=O)NC(C)COc2c(F)c(F)cc(F)c2F)C(C)C1(Cl)Cl (stereo not shown) [compound 249]	–	–	–	–	–	Test A disease control rating (100 = 100% disease control, 0 = no disease control) [1, 8]: 0%; Test B disease control rating (100 = 100% disease control, 0 = no disease control) [2, 8]: 0%; Test C disease control rating (100 = 100% disease control, 0 = no disease control) ([3]; rice seedlings sprayed to run-off, inoculated the following day, rating relative to controls, unmarked compounds (standard test rate)): 94%; Test D disease control rating (100 = 100% disease control, 0 = no disease control) ([4]; tomato seedlings sprayed to run-off, inoculated the following day, rating relative to controls, unmarked compounds (standard test rate)): 0%; Test E disease control rating (100 = 100% disease control, 0 = no disease control) ([5]; cucumber seedlings sprayed to run-off, inoculated the following day, rating relative to controls, unmarked compounds (standard test rate)): 0%
C[C@H](COc1ccccc1F)NC(=O)C(C#N)C(C)(C)C (single isomer, unassigned) [2c]	86	0	100	24	0	–
C#CC(C)(C)C(C#N)C(=O)NC(C)COc1cc(C)ccc1Cl (mixture of isomers) [compound 213]	63	0	99	62	0	–
CCC1(C(=O)NCCCc2ccccc2)C(C)C1(Cl)Cl (stereo not shown) [compound 154]	52	0	52	0	0	–
CCC1(C(=O)NC(C)COc2cc(Cl)ccc2Cl)C(C)C1(Cl)Cl (stereo not shown) [compound 113]	–	–	–	–	–	Test A disease control rating ([1]; tested at 40 ppm): 0%; Test B disease control rating ([2]; tested at 40 ppm): 0%; Test C disease control rating ([3]; tested at 40 ppm): 97%; Test D disease control rating ([4]; tested at 40 ppm): 19%; Test E disease control rating ([5]; tested at 40 ppm): 0%
CC(COc1ccc(F)cc1)NC(=O)C(C#N)C(C)(C)C (mixture of isomers) [4c]	35	0	94	0	58	–
CC(COc1c(F)ccc(F)c1F)NC(=O)C(C#N)C(C)(C)C (mixture of isomers) [compound 186]	0	0	100	0	45	–
C[C@H](COc1ccc(Br)cc1)NC(=O)C(C#N)C(C)(C)C (single isomer, unassigned) [10d]	77	0	74	35	45	–
CCC1(C(=O)NC(C)COc2cccc(CF)c2)C(C)C1(Cl)Cl (mixture of isomers) [compound 102]	–	–	–	–	–	Test A disease control rating ([1]; tested at 40 ppm): 60%; Test B disease control rating ([2]; tested at 40 ppm): 0%; Test C disease control rating ([3]; tested at 40 ppm): 0%; Test D disease control rating ([4]; tested at 40 ppm): 0%; Test E disease control rating ([5]; tested at 40 ppm): 0%
C[C@H](COc1ccc(Cl)c(F)c1)NC(=O)C(C#N)C(C)(C)C (single isomer, unassigned) [182a]	0	0	0	0	0	–
CC(COc1cccc(Cl)c1C#N)NC(=O)C(C#N)C(C)(C)C (mixture of isomers) [compound 42]	0	0	53	2	0	–
CC(COc1cc(F)cc(F)c1C#N)NC(=O)C(C#N)C(C)C(C)(C)C (mixture of isomers) [compound 69]	0	0	53	2	0	–
C[C@H](COc1cccc(F)c1F)NC(=O)C(C#N)C(C)(C)C (single isomer, unassigned) [26b]	38	68	100	81	0	–
